Results published in patent publication US9340559B2, “Proteasome inhibitor delanzomib for use in the treatment of lupus” (Cephalon, Inc., priority 2011, dated 2016).

Assays:
Type in all cases: in vivo, mouse
MRL/lpr mice [1] = assay: Splenomegaly (spleen mass), MRL/lpr mice; details: G6: 1.5 mg/kg ip, 3× wk
Method: FIG. 5 depicts splenomegaly for MRL/lpr mice across treatment groups for the study duration. MRL/lpr mice were treated as outlined in the legend. The spleen masses for all mice that survived until the end of the experiment are graphed. Each symbol represents the spleen weight for one mouse at 25 weeks of age.
Mice are tracked on an individual basis.
Vehicle alone is provided orally twice weekly (p.o.). Both proteasome inhibitors are suspended in the vehicle solution. […] In addition, urine proteinuria is determined for all animals.
Vehicle was 3% DMSO/10% Solutol/87% PBS.

MRL/lpr mice [2] = assay: Renal histopathology scoring (kidney IC-GN), MRL/lpr mice; details: G6: 1.5 mg/kg ip, 3× wk
Method: (§1) For histological analyses, the left kidney from each animal is removed and fixed in 10% buffered neutral 10% formalin (EMD) for 48 hours on an orbital rocker at 25° C., then washed overnight with running dH2O and stored in 70% ethanol at 4° C. until ready to be processed. Kidney stains used for histological analyses included hematoxylin and eosin (H&E), Periodic Acid Schiff (PAS) and Trichrome stains (Wistar Institute, Philadelphia, Pa.). All 3 stained sections are used by the pathologist for scoring purposes. All histological scoring is performed blinded and by an independent board certified veterinary medical pathologist (Julie Engiles, VMD, DACVP). Multiple stains are used to determine score values. Images in FIG. 17 show worst affected area of section selected blindly by the pathologist.
(§2) Kidney IC-GN Scoring Method (Smith, Dong et al. 2007):
(§3) 1. Glomerular cellularity—Score 1-5: Null, low, moderate, high, severe
(§4) 2. Glomerular necrosis—Score 1-5: Null, low, moderate, high, severe
(§5) 3. Glomerulosclerosis—Score 1-5: Null, low, moderate, high, severe
(§6) 4. Interstitial infiltration—Score 1-5: Null, low, moderate, high, severe
(§7) 5. Tubular atrophy—Score 1-5: Null, low, moderate, high, severe
(§8) 6. Interstitial fibrosis—Score 1-5: Null, low, moderate, high, severe
(§9) 7. Vasculitis—Score 1-5: Null, low, moderate, high, severe
(§10) Specific Pathologist Definitions: • Necrosis is defined by the presence of nuclear debris/pyknosis within the glomerular tuft indicative of “necrosis.” In many samples, this is a very mild, rare finding within only a very few segments of the glomerular tuft. Also consider effacement of the glomerular tuft by PAS positive, Trichrome negative material necrosis. • Glomerular sclerosis is defined by increased fibroplasia or fibrosis within the glomerular tuft or capsule. […] Most of the vascular changes are mild and could be considered “arteriosclerosis” characterized by proliferation of the smooth muscle cells, and hyalinization of the extracellular matrix. This change may reflect hypertension secondary to glomerular pathology. In very few animals is there overt “vasculitis.” Most inflammatory changes are within the walls of the blood vessels, with little to no damage to the endothelium, and no overt hemorrhage/fibrin leakage. Many also have perivascular rims of fibroblasts.

NZM mice [3] = assay: Body weight progression, NZM mice (Example 2); details: G5 1.5 mg/kg ip, 3× wk
NZM mice [4] = assay: Antinuclear antibody (ANA) ELISA (anti-chromatin, anti-Smith Ag, anti-dsDNA), serum of NZM mice (Example 2); details: G5 1.5 mg/kg ip, 3× wk
NZM mice [5] = assay: Collagen type-I cross-linker (CTx) bone resorption biomarker ELISA, serum of NZM mice
Method: Assay is performed as instructed by the manufacturer. Briefly, biotinylated ratlaps antigen is first added in each well of a 96-well ELISA plate. This plate is covered and incubated for 30 minutes at RT. Plate is washed five times with washing solution and incubated with standards or unknown samples in appropriate wells followed by primary Ab. Incubate overnight for 18 hours at 4° C. followed by washing with buffer. Secondary incubation includes a peroxidase conjugated goat anti-rabbit IgG added to each well and incubation at RT for 1 hour. Incubation with chromogenic substrate solution for 15 minutes at RT in the dark develops the plate for analysis. Stopping solution halts the reaction, absorbance is measured within 2 hours at 450 nm.

NZM mice [6] = assay: Renal histopathology scoring (kidney IC-GN), NZM mice (Example 2)
Method: as §1, with “neutral” for “neutral 10%”, “39” for “17”
as §2, §3, §4, §5, §6, §7, §8, §9, §10

## C[C@@H]1C[C@H]2[C@@H]3CCC4=CC(=O)C=C[C@]4(C)[C@@]3(F)[C@@H](O)C[C@]2(C)[C@@]1(O)C(=O)CO [dexamethasone, Dexamethasone, reference compound]
MRL/lpr mice [1]
  EOS spleen mass, percent change vs vehicle: −71%
MRL/lpr mice [2]
  EOS glomerular cellularity, percent change vs vehicle: −15%
  EOS glomerular necrosis, percent change vs vehicle: −25%
  EOS glomerulosclerosis, percent change vs vehicle: −27%
  EOS interstitial infiltration, percent change vs vehicle: −50%
  EOS vasculitis, percent change vs vehicle: −18%
  Kidney EOS interstitial fibrosis, percent change vs vehicle: −27%
  Kidney EOS tubular atrophy, percent change vs vehicle: −23%
NZM mice [3]
  Body mass AUC, percent change vs vehicle: −1%
NZM mice [4]
  ANA Smith Ag AUC, percent change vs vehicle: −56%
  ANA chromatin AUC, percent change vs vehicle: −8%
  ANA dsDNA AUC, percent change vs vehicle: −19%
NZM mice [5]; G5 1.5 mg/kg ip, 3× wk
  Serum CTx linker AUC, percent change vs vehicle: 21%
NZM mice [5]; G8 1.5 mg/kg 3× wk ip
  p, serum concentration of collagen type I cross-linker vs G5 Bortezomib 0.3 mg/kg 1× wk ip: p < 0.05
  p, serum concentration of collagen type I cross-linker vs G6 Bortezomib 0.3 mg/kg 2× wk ip: p < 0.01
NZM mice [6]; G5 1.5 mg/kg ip, 3× wk
  Kidney glomerular cellularity, percent change vs vehicle: −38%
  Kidney glomerular necrosis, percent change vs vehicle: −16%
  Kidney glomerulosclerosis, percent change vs vehicle: −17%
  Kidney interstitial fibrosis, percent change vs vehicle: −36%
  Kidney interstitial infiltration, percent change vs vehicle: −36%
  Kidney tubular atrophy, percent change vs vehicle: −25%
  Kidney vasculitis, percent change vs vehicle: −40%
NZM mice [6]; G6 1.5 mg/kg 1× wk
  p, glomerular cellularity (GC) vs G8 NZW/LacJ non-diseased: p < 0.01
  p, glomerular necrosis (GN) vs G5 CTX 50 mg/kg 1× wk: p < 0.05
  p, glomerular necrosis (GN) vs G8 NZW/LacJ non-diseased: p < 0.01
  p, glomerular necrosis (GN) vs G9 NZM diseased baseline: p < 0.05
  p, glomerulosclerosis (GS) vs G4 Bortezomib 0.3 mg/kg 2× wk: p < 0.001
  p, glomerulosclerosis (GS) vs G5 CTX 50 mg/kg 1× wk: p < 0.05
  p, glomerulosclerosis (GS) vs G8 NZW/LacJ non-diseased: p < 0.001
  p, glomerulosclerosis (GS) vs G9 NZM diseased baseline: p < 0.05
  p, interstitial fibrosis (IF) vs G5 CTX 50 mg/kg 1× wk: p < 0.05
  p, interstitial fibrosis (IF) vs G8 NZW/LacJ non-diseased: p < 0.05
  p, interstitial infiltration (II) vs G4 Bortezomib 0.3 mg/kg 2× wk: p < 0.01
  p, interstitial infiltration (II) vs G5 CTX 50 mg/kg 1× wk: p < 0.05
  p, interstitial infiltration (II) vs G8 NZW/LacJ non-diseased: p < 0.05
  p, tubular atrophy (TA) vs G4 Bortezomib 0.3 mg/kg 2× wk: p < 0.01
  p, tubular atrophy (TA) vs G5 CTX 50 mg/kg 1× wk: p < 0.05
  p, tubular atrophy (TA) vs G8 NZW/LacJ non-diseased: p < 0.01
